Experimental data as given in PubChem BioAssay (NCI).
Values joined by “and” are separate entries in the source; they are usually repeats but may differ in a detail not shown here. Identical values can stand only once.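 All cell lines were grown in 96-well plates and treated with compound for 48 hours. At the GI50, growth is halved. TGI: concentration producing complete growth inhibition.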

What was measured:
Test in all cases: NCI tumour cell line growth inhibition, 48 h
TK-10 renal = test system: TK-10 renal
A498 renal = test system: A498 renal
A549 NSCLC = test system: A549 NSCLC
SK-MEL-2 melanoma = test system: SK-MEL-2 melanoma
SW-620 colon = test system: SW-620 colon
KM12 colon = test system: KM12 colon
SF-295 CNS = test system: SF-295 CNS
COLO 205 colon = test system: COLO 205 colon
HCT-116 colon = test system: HCT-116 colon
SN12C renal = test system: SN12C renal

SMILES	GI50 (TK-10 renal)	TGI (TK-10 renal)	GI50 (A498 renal)	TGI (A498 renal)	GI50 (A549 NSCLC)	TGI (A549 NSCLC)	GI50 (SK-MEL-2 melanoma)	TGI (SK-MEL-2 melanoma)	GI50 (SW-620 colon)	TGI (SW-620 colon)	GI50 (KM12 colon)	TGI (KM12 colon)	GI50 (SF-295 CNS)	TGI (SF-295 CNS)	GI50 (COLO 205 colon)	TGI (COLO 205 colon)	GI50 (HCT-116 colon)	TGI (HCT-116 colon)	GI50 (SN12C renal)	TGI (SN12C renal)
O=C(O[C@H]1CN[C@H](C#Cc2cc3ncnc(Nc4ccc(Cc5ccccc5)cc4)c3s2)C1)N1CCOCC1	0.548 µM	4.97 µM	0.768 µM	6.53 µM	4.86 µM	> 25 µM	5.41 µM	14.4 µM	5.93 µM	17.7 µM	4.28 µM	8.72 µM	> 13.6 µM	> 25 µM	5.37 µM	13.1 µM	4.03 µM	8.16 µM	4.08 µM	> 25 µM
NC(=O)Cc1ccccc1Oc1nccc(-c2c(-c3ccc(F)cc3)ncn2C2CCNCC2)n1	> 25 µM	> 25 µM	> 25 µM	> 25 µM	> 25 µM	> 25 µM	> 25 µM	> 25 µM	> 25 µM	> 25 µM	> 25 µM	> 25 µM	> 25 µM	> 25 µM	> 25 µM	> 25 µM	> 25 µM	> 25 µM	> 25 µM	> 25 µM
S=c1cn[nH]c2ccc(Br)cc12	–	> 100 µM	–	> 100 µM	–	> 100 µM	–	71.3 µM	–	> 100 µM	–	> 100 µM	–	> 100 µM	–	> 100 µM	–	> 100 µM	–	> 100 µM
Cc1nc(NC(=O)COc2cccc(/C=C3\COc4ccccc4C3=O)c2)sc1C	2.31 µM	4.08 µM	12.6 µM	25.2 µM	3.7 µM	12.4 µM	1.62 µM	3.17 µM	1.08 µM	2.39 µM	1.5 µM	2.92 µM	1.64 µM	3.33 µM	1.96 µM	3.88 µM	1.53 µM	3.04 µM	2.01 µM	4.63 µM
O=[N+]([O-])c1ccccc1S(=O)(=O)c1ccccc1[N+](=O)[O-]	–	> 56.2 µM	–	> 100 µM	–	> 56.2 µM	–	> 100 µM	–	> 56.2 µM	–	> 100 µM	–	> 100 µM	–	> 100 µM	–	> 100 µM	–	> 100 µM
Nc1ccccc1C#Cc1ccccc1C#Cc1ccccc1N	4.17 µM	20 µM	6 µM	19.8 µM	22.1 µM	> 100 µM	11.3 µM	30.2 µM	5.31 µM	18.4 µM	2.97 µM	14.7 µM	3.13 µM	10.5 µM	15 µM	43.9 µM	6.32 µM	21.5 µM	11.4 µM	24.5 µM
CC(/C=C/C=C/C=C/C=C/C=C/C(O)=C1/C(=O)C(CCC(=O)O)N(C)C1=O)=C\C(C)C(OC1CC(O)C(O)C(C)O1)C(C)C (stereo not given)	–	7.92 µM	–	10.7 µM	–	10.5 µM	–	12.9 µM	–	14.6 µM	–	3.73 µM	–	14.8 µM	–	4.48 µM	–	7.15 µM	–	13.6 µM
Cn1c(=O)c(Sc2ccccc2F)cc2cnc(NC3CCOCC3)nc21	> 25 µM	> 25 µM	> 25 µM	> 25 µM	> 25 µM	> 25 µM	> 25 µM	> 25 µM	> 25 µM	> 25 µM	> 25 µM	> 25 µM	> 25 µM	> 25 µM	> 25 µM	> 25 µM	> 25 µM	> 25 µM	> 25 µM	> 25 µM
COc1ccccc1/C=C1\CCC(CN(C)C)C1=O (stereo not given)	–	15.7 µM	–	34.1 µM	–	40.6 µM	–	24.4 µM	–	6 µM	–	12.4 µM	–	29.7 µM	–	8.38 µM	–	18.1 µM	–	13.3 µM
Cc1ccc(NC(=O)C2C(=O)C(=O)N(c3ccc(C)cc3)C2=O)cc1 (stereo not given)	–	> 100 µM	–	> 100 µM	–	> 100 µM	–	> 100 µM	–	> 100 µM	–	> 100 µM	–	> 100 µM	–	> 100 µM	–	> 100 µM	–	> 100 µM
O=S(=O)(c1ccc2c(c1)C(=NO)c1cc(S(=O)(=O)N3CCCCC3)ccc1-2)N1CCCCC1	0.669 µM and 0.177 µM	> 1 µM and 0.319 µM	> 1 µM and 8.88 µM	> 1 µM and 37.5 µM	> 1 µM and 0.187 µM	> 1 µM and 0.371 µM	> 1 µM and 0.176 µM	> 1 µM and 0.331 µM	0.197 µM and 0.0743 µM	0.437 µM and 0.174 µM	0.508 µM and 0.184 µM	> 1 µM and 0.356 µM	0.188 µM and 0.141 µM	0.352 µM and 0.283 µM	> 1 µM and 0.194 µM	> 1 µM and 0.363 µM	0.2 µM and 0.153 µM	0.434 µM and 0.333 µM	0.208 µM and 0.144 µM	0.438 µM and 0.28 µM
